In patent US4229461A, “Fungicidal 6-(3,5-dichlorophenyl)perhydroimidazo[5,1-b]thiazole derivatives” (Mitsubishi Chemical Industries Limited, priority 1978, dated 1980):
In brackets after ≈: the same amount, converted by molar mass.

Experiments:
Sclerotinia sclerotiorum [1] = test: Preventive test against kidney bean stem rot; type: in vivo; conditions: 4 days, 25° C.
Protocol: Kidney bean plants (cultivar: Kintoki) were each grown in a 15 cm.phi. plastic pot to the trifoliate stage. The plants were sprayed with 10 ml/l pot of an aqueous diluted suspension of wettable powders of the chemicals of the invention and comparison chemical.
The wettable powders were prepared in a manner similar to example 1. After air drying for 5 hours, the plants were inoculated with mecelia of Sclerotinia sclerotiorum incubated with shaking in a Yeast-Glucose liquid medium, and kept in a humidic chamber at 25° C. for 4 days. Then the preventive value was calculated according to the equation given in test example 1.

[2] = system: Botrytis cinerea (strain II); test: Antifungal Test (PDA medium), Botrytis cinerea (strain II); type: cell-based; conditions: 96 h, resistant to benzoimidazole type fungicide, 25° C., 4 days, read-out: MIC Concentration
Protocol: (§1) Each chemical was mixed with PDA medium in an amount enough to obtain the pre-determined concentration level and solidified in 9 cm.phi. Petri dish. Then, various plant disease fungi were inoculated on the middle of the mixed agar plate and cultured at 25° C. for 4 days.
(§2) The minimum inhibition concentration (MIC) means that at which the development of the inoculated fungus was not recognized with the naked eye.
*Botrytis cinerea (strain II) is the strain resistant to
benzoimidazoletype fungicide e.g. Benlate, TopsinM.

Altrenaria mali = test: Antifungal Test (PDA medium), Altrenaria mali; type: cell-based; conditions: 96 h, 25° C., 4 days, read-out: MIC Concentration
Protocol: as §1, §2

[3] = system: Botrytis cinerea (strain I); test: Antifungal Test (PDA medium), Botrytis cinerea (strain I); type: cell-based; conditions: 96 h, 25° C., 4 days, read-out: MIC Concentration
Protocol: as §1, §2

Altrenaria Kikuchiana = test: Antifungal Test (PDA medium), Altrenaria Kikuchiana; type: cell-based; conditions: 96 h, 25° C., 4 days, read-out: MIC Concentration
Protocol: as §1, §2

Cochliobolus miyabeans = test: Preventive test against Rice brown spot disease; type: in vivo, Cochliobolus miyabeans on rice plants (cultivar: Kinmaze); conditions: Oryza sativa, 48 h, read-out: Preventive Value
Protocol: Rice plants (cultivar: Kinmaze) were each grown in a 10 cm.phi. porcelain pot to the 3-4 leaves stage. The plants were sprayed with 10 ml/l pot of aqueous diluted suspensions of various types of wettable powders of the chemicals of the invention and comparison chemical [bis(dimethyl thiocarbamoyl)disulfide). The wettable powders were prepared in a manner similar to test example 1.
After air drying for 5 hours, the plants were inoculated with a spore suspension of Cochliobolus miyabeans incubated with a chaffy medium at 25° C. for 5 days.
These plants were kept in the humidic chamber at 27° C. for 48 hours after inoculation and the number of lesions were counted and preventive value was calculated according to the following equation. [formula]

Botrytis allii = test: Antifungal Test (PDA medium), Botrytis allii; type: cell-based; conditions: 96 h, 25° C., 4 days, read-out: MIC Concentration
Protocol: as §1, §2

Sclerotinia sclerotiorum [4] = test: Antifungal Test (PDA medium), Sclerotinia sclerotiorum; type: cell-based; conditions: 96 h, 25° C., 4 days, read-out: MIC Concentration
Protocol: as §1, §2

Botrytis cinerea = test: Preventive test against Cucumber Gray Mold disease; type: in vivo; conditions: 96 h, 4 days after inoculation, 23° C.
Protocol: Cucumber plants (cultivar: Satsukimidori), were each grown in a 15 cm.phi. plastic pot to the first leaf stage. The plants were sprayed with 10 ml/l pot of aqueous diluted suspensions of various types of wettable powders (including the wettable powder containing, as its active ingredient, compound No. 1 obtained in the Preparation Example 1, wettable powders, containing as active ingredients compounds Nos. 2-10 obtained in a manner similar to Preparation Example 1, and a wettable powder for a comparison chemical containing, as its active ingredient, tetrachloroisophthalonitrile obtained in manner similar to Preparation Example 1). After air-drying for 5 hours, the plants were inoculated with the mecelia of Botrytis cinerea inoculated with shaking in Yeast-Glucose liquid medium.
The cucumbers were kept in the humidic chamber at 23° C. for 4 days after inoculation and then checked with respect to their disease index. The checking was conducted as follows: The leaves were checked to determine the extent of lesion area and classified into six groups as indicated by indices 0, 1, 2, 3, 4, 5 based on the extent of the lesions and on the numbers of leaves n0, n1, n2, n3, n4, and n5 which corresponded to the indices, respectively, were also determined to calculate the disease index from the following equation.
1 lesion area of 1/5 times the total leaf area
2 lesion area of 2/5 times the total leaf area
3 lesion area of 3/5 times the total leaf area
4 lesion area of 4/5 times the total leaf area
5 lesion area above 4/5 times the total leaf area
(where n is the total number of checked leaves)
The preventive value was calculated from the following equation. [formula]

## Nc1c(Cl)cc([N+](=O)[O-])cc1Cl [2,6dichloro-4-nitroaniline, reference compound]
Sclerotinia sclerotiorum [1]; 500 ppm
  Preventive Value: 70.5%

## CCCCNC(=O)n1c(NC(=O)OC)nc2ccccc21 [Benlate, reference compound]
[2]
  MIC: > 100 µg/mL
Altrenaria mali
  MIC: > 100 µg/mL
[3]
  MIC: 0.4 µg/mL (≈ 1.38 µM)
Altrenaria Kikuchiana
  MIC: > 100 µg/mL

## CN(C)C(=S)SSC(=S)N(C)C [Bis(dimethyl thiocarbamoyl)disulfide, reference compound]
Cochliobolus miyabeans
  pest or weed control at 500 ppm: 83.3%

## O=C1C2SCCN2C(=O)N1c1cc(Cl)cc(Cl)c1 (stereo not drawn) [Compound No. 1, 6-(3,5-dichlorophenyl)perhydroimidazo[5,1-b]thiazole-5,7-dion]
Botrytis allii
  MIC: 6.2 µg/mL (≈ 20.5 µM)
Sclerotinia sclerotiorum [1]; 50 ppm
  Preventive Value: 95.3%
Sclerotinia sclerotiorum [1]; 100 ppm
  Preventive Value: 98.2%
Sclerotinia sclerotiorum [1]; 200 ppm
  Preventive Value: 100%
[2]
  MIC: 3.1 µg/mL (≈ 10.2 µM)
Sclerotinia sclerotiorum [4]
  MIC: 1.6 µg/mL (≈ 5.28 µM)
Altrenaria mali
  MIC: 3.1 µg/mL (≈ 10.2 µM)
[3]
  MIC: 3.1 µg/mL (≈ 10.2 µM)
Botrytis cinerea
  pest or weed control at 62.5 ppm: 100%
  pest or weed control at 125 ppm: 100%
  pest or weed control at 250 ppm: 100%
  pest or weed control at 500 ppm: 100%
Altrenaria Kikuchiana
  MIC: 3.1 µg/mL (≈ 10.2 µM)
Cochliobolus miyabeans
  pest or weed control at 500 ppm: 95.1%

## O=C1C2SCCN2C(=S)N1c1cc(Cl)cc(Cl)c1 (stereo not drawn) [Compound No. 2, 6-(3,5-dichlorophenyl)perhydroimidazo[5,1-b]thiazole-5-thion-7-on]
Sclerotinia sclerotiorum [1]; 50 ppm
  Preventive Value: 93.8%
Sclerotinia sclerotiorum [1]; 100 ppm
  Preventive Value: 96.5%
Sclerotinia sclerotiorum [1]; 200 ppm
  Preventive Value: 100%
Botrytis cinerea
  pest or weed control at 500 ppm: 92%
Cochliobolus miyabeans
  pest or weed control at 500 ppm: 88.4%

## CC12SCCN1C(=O)N(c1cc(Cl)cc(Cl)c1)C2=O (stereo not drawn) [Compound No. 3, 7a-methyl-6-(3,5-dichlorophenyl)perhydroimidazo[5,1-b]thiazole-5,7-dion]
Botrytis allii
  MIC: 3.1 µg/mL (≈ 9.77 µM)
[2]
  MIC: 0.8 µg/mL (≈ 2.52 µM)
Sclerotinia sclerotiorum [4]
  MIC: 1.6 µg/mL (≈ 5.04 µM)
Altrenaria mali
  MIC: 3.1 µg/mL (≈ 9.77 µM)
[3]
  MIC: 1.6 µg/mL (≈ 5.04 µM)
Botrytis cinerea
  pest or weed control at 62.5 ppm: 100%
  pest or weed control at 125 ppm: 100%
  pest or weed control at 250 ppm: 100%
  pest or weed control at 500 ppm: 100%
Altrenaria Kikuchiana
  MIC: 3.1 µg/mL (≈ 9.77 µM)
Cochliobolus miyabeans
  pest or weed control at 500 ppm: 96.2%

## CC12SCCN1C(=S)N(c1cc(Cl)cc(Cl)c1)C2=O (stereo not drawn) [Compound No. 4, 7a-methyl-6-(3,5-dichlorophenyl)perhydroimidazo[5,1-b]thiazole-5-thion-7-on]
Botrytis cinerea
  pest or weed control at 500 ppm: 93%
Cochliobolus miyabeans
  pest or weed control at 500 ppm: 85.7%

## O=C1C2N(CCS2(=O)=O)C(=O)N1c1cc(Cl)cc(Cl)c1 (stereo not drawn) [Compound No. 5, 6-(3,5-dichlorophenyl)perhydroimidazo[5,1-b]thiazole-5,7-dion-1,1-dioxide]
Botrytis cinerea
  pest or weed control at 500 ppm: 91%
Cochliobolus miyabeans
  pest or weed control at 500 ppm: 89.6%

## CC12C(=O)N(c3cc(Cl)cc(Cl)c3)C(=O)N1CCS2(=O)=O (stereo not drawn) [Compound No. 6, 7a-methyl-6-(3,5-dichlorophenyl)perhydroimidazo[5,1-b]thiazole-5,7-dion-1,1-dioxide]
Botrytis cinerea
  pest or weed control at 500 ppm: 90%
Cochliobolus miyabeans
  pest or weed control at 500 ppm: 90.6%

## CCCC12SCCN1C(=O)N(c1cc(Cl)cc(Cl)c1)C2=O (stereo not drawn) [Compound No. 8, 7a-n-propyl-6-(3,5-dichlorophenyl)perhydroimidazo[5,1-b]thiazole-5,7-dion]
Botrytis cinerea
  pest or weed control at 500 ppm: 97%
Cochliobolus miyabeans
  pest or weed control at 500 ppm: 85.4%

## CCC12SCCN1C(=S)N(c1cc(Cl)cc(Cl)c1)C2=O (stereo not drawn) [Compound No. 9, 7a-ethyl-6-(3,5-dichlorophenyl)perhydroimidazo[5,1-b]thiazole-5-thion-7-on]
Botrytis cinerea
  pest or weed control at 500 ppm: 96%
Cochliobolus miyabeans
  pest or weed control at 500 ppm: 82.9%

## CCCC12SCCN1C(=S)N(c1cc(Cl)cc(Cl)c1)C2=O (stereo not drawn) [Compound No. 10, 7a-n-propyl-6-(3,5-dichlorophenyl)perhydroimidazo[5,1-b]thiazole-5-thion-7-on]
Botrytis cinerea
  pest or weed control at 500 ppm: 94%
Cochliobolus miyabeans
  pest or weed control at 500 ppm: 83.2%

## N#Cc1c(Cl)c(Cl)c(Cl)c(C#N)c1Cl [Tetrachloro isophthalonitrile, reference compound]
Botrytis cinerea
  pest or weed control at 500 ppm: 65%

## CCC12SCCN1C(=O)N(c1cc(Cl)cc(Cl)c1)C2=O (stereo not drawn) [compound 7, 7a-ethyl-6-(3,5-dichlorophenyl)perhydroimidazo[5,1-b]thiazole-5,7-dion]
Botrytis cinerea
  pest or weed control at 500 ppm: 100%
Cochliobolus miyabeans
  pest or weed control at 500 ppm: 90.8%
